Tests used:
Test in all cases: standardised AUC of viability dose-response curve (72 h) (fraction (0-1)); higher = less growth inhibition (more resistant)
[1] = system: VA-ES-BJ
Method in brief: (§1)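 Sarcoma cell lines in 384-well plates were treated in triplicate for 72 h with 2.5 µl of compound dilution series (compound-plate series 10 mM to 0.0002 mM, 1:3 steps). ATPLite viability was scaled 1 (full) to 0 (none) and fitted per drug and cell line with a four-parameter log-logistic model. The standardised area under the dose-response curve in log-dose space (modified drexplorer computeAUC) runs from 1 (no response) to 0 (full response).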

[2] = system: A204
Method in brief: as §1

[3] = system: SK-ES-1
Method in brief: as §1

[4] = system: G401
Method in brief: as §1

[5] = system: KHOS-240S
Method in brief: as §1

[6] = system: RD
Method in brief: as §1

[7] = system: SW684
Method in brief: as §1

[8] = system: SW982
Method in brief: as §1

[9] = system: SK-LMS-1
Method in brief: as §1

[10] = system: SW872
Method in brief: as §1

[11] = system: SYO-1
Method in brief: as §1

[12] = system: MES-SA
Method in brief: as §1

[13] = system: RD-ES
Method in brief: as §1

[14] = system: SW1353
Method in brief: as §1

[15] = system: HT1080
Method in brief: as §1

[16] = system: HS729
Method in brief: as §1

[17] = system: KHOS-NP
Method in brief: as §1

SMILES | standardised AUC [1] | standardised AUC [2] | standardised AUC [3] | standardised AUC [4] | standardised AUC [5] | standardised AUC [6] | standardised AUC [7] | standardised AUC [8] | standardised AUC [9] | standardised AUC [10] | standardised AUC [11] | standardised AUC [12] | standardised AUC [13] | standardised AUC [14] | standardised AUC [15] | standardised AUC [16] | standardised AUC [17]
CCc1cnn2c(NCc3ccc[n+]([O-])c3)cc(N3CCCC[C@H]3CCO)nc12 [DINACICLIB] | 0.498 | 0.497 | 0.378 | 0.439 | 0.51 | 0.484 | 0.798 | 0.546 | 0.598 | 0.6 | 0.519 | 0.398 | 0.419 | 0.551 | 0.525 | 0.64 | 0.509
CC#CC(=O)N1CCC[C@H]1c1nc(-c2ccc(C(=O)Nc3ccccn3)cc2)c2c(N)nccn12 [ACALABRUTINIB] | 1 | 0.985 | 0.993 | 0.992 | 0.986 | 0.976 | 0.996 | 0.98 | 0.996 | 0.992 | 0.989 | 0.996 | 0.998 | 0.963 | 0.998 | 0.995 | 1
CC(C)(C)c1nc(-c2cccc(NS(=O)(=O)c3c(F)cccc3F)c2F)c(-c2ccnc(N)n2)s1 [DABRAFENIB] | 0.876 | 0.881 | 0.812 | 0.921 | 0.96 | 0.941 | 0.97 | 0.723 | 0.779 | 0.586 | 0.946 | 0.866 | 0.854 | 0.925 | 0.924 | 0.853 | 0.863
Cc1ccc(Nc2nccc(N(C)c3ccc4c(C)n(C)nc4c3)n2)cc1S(N)(=O)=O [PAZOPANIB] | 1 | 0.699 | 0.966 | 0.914 | 0.951 | 0.997 | 0.99 | 0.987 | 0.974 | 0.984 | 0.78 | 0.964 | 0.988 | 0.98 | 0.999 | 0.91 | 0.978
C[C@H](Nc1ncnc2nc[nH]c12)c1cc2cccc(Cl)c2c(=O)n1-c1ccccc1 [DUVELISIB] | 0.884 | 0.864 | 0.917 | 0.912 | 0.946 | 0.941 | 0.666 | 0.915 | 0.834 | 0.869 | 0.921 | 0.901 | 0.915 | 0.879 | 0.996 | 0.902 | 0.985
CN1CC[C@@H](NC(=O)Nc2ccc(C#N)cc2)C[C@@H]1c1nc2ccccc2[nH]1 [GLASDEGIB] | 0.984 | 0.982 | 0.953 | 0.976 | 0.991 | 0.987 | 0.99 | 0.991 | 0.982 | 0.988 | 0.976 | 0.976 | 0.959 | 0.988 | 0.988 | 0.985 | 0.992
